Data taken from patent US20020172972A1, “Use of a selectively inactivatable enzyme to digest contaminating nucleic acid” (President and Fellows of Harvard College, priority 2001, published 2002).

Molecular target: T1, micrococcal nuclease (Staphylococcus aureus, UniProt P00644)
T1 construct: purchased Sigma N5386
Assay: inactivation of micrococcal nuclease by EGTA, read out in the real time T7 DNA amplification reaction
Type: biochemical
Details: 2 mM EGTA added after incubation with 1 mM CaCl2
Text: Micrococcal nuclease is obtained from Sigma (Sigma catalog number N5386 from Staphylococcus aureus, Foggi strain; 100-300 units/mg). EGTA, Ethylene glycol-bis(2-aminoethyl ether)-N,N,N′,N′-tetraacetic acid, is used as the micrococcal inactivating-agent and is obtained from Sigma (Sigma catalog number E8145. Tetrasodium salt). […]
DNA was quantitated by its ability to stimulate a real time DNA amplification reaction based on the T7 replication system, as described in PCT number WO 00/41524, published Jul. […] In this assay, the time required for the synthesized DNA to reach a designated threshold fluorescence value is proportional to the log of the input concentration of DNA over more than a 10,000,000-fold range of DNA concentration.

O=C(O)CN(CCOCCOCCN(CC(=O)O)CC(=O)O)CC(=O)O [EGTA, Ethylene glycol-bis(2-aminoethyl ether)-N,N,N′,N′-tetraacetic acid]
effect of EGTA on micrococcal nuclease activity: inactivated
